# Target: T1, lipoxygenase from soybean (LOX)
# T1 construct: gene LOX1.1; such preparations are usually mainly lipoxygenase-1
# Test: lipoxygenase inhibition assay, 96-well plate reader
# Type: biochemical, Glycine max
# Settings: substrate linoleic acid; positive control; μg of standard per mL of the enzyme solution
# Source text: lipoxygenase inhibition assay, 96-well plate reader on lipoxygenase from soybean (LOX)
row,Compound,LOX / IC50 (μg/mL)^a
1,"O=c1c(O)c(-c2ccc(O)c(O)c2)oc2cc(O)cc(O)c12 [QU, quercetin]",89.23 ± 2.13 µg/mL
2,"C[C@@H]1O[C@@H](OC[C@H]2O[C@@H](Oc3c(-c4ccc(O)c(O)c4)oc4cc(O)cc(O)c4c3=O)[C@H](O)[C@@H](O)[C@@H]2O)[C@H](O)[C@H](O)[C@H]1O [RT, Quercetin 3-O-(6′′-O-α-L-rhamnopyranosyl)-β-D-glucopyranoside]",162.70 ± 3.70 µg/mL
3,"COc1ccc2c(c1)c(CC(=O)O)c(C)n2C(=O)c1ccc(Cl)cc1 [IND, indomethacin]",92.60 ± 3.71 µg/mL
4,"O=C(/C=C/c1ccc(O)c(O)c1)O[C@@H]1C[C@](O)(C(=O)O)C[C@@H](O)[C@H]1O [CHA, 5-O-Caffeoylquinic acid]",166.83 ± 7.15 µg/mL
